Assays:
Assay in all cases: relative viability (nuclei count vs DMSO), 5 days (fraction); higher = more cells survive
Linsitinib + Bortezomib = compound: C[C@]1(O)C[C@@H](c2nc(-c3ccc4ccc(-c5ccccc5)nc4c3)c3c(N)nccn32)C1 [Linsitinib] + CC(C)C[C@H](NC(=O)[C@H](Cc1ccccc1)NC(=O)c1cnccn1)B(O)O [Bortezomib] (partner 0.002 µM)
In short: (§1)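 For relative viability, nuclei counts in treated wells were divided by those in vehicle wells. Lung cancer cell lines had been pin-tool dosed in 1536-well plates the day after seeding and cultured for 5 days, then fixed and stained in one step (final 0.05% Triton X-100, 1% formaldehyde, 1 ug/ml Hoechst) and imaged at 4×. Doses were one drug alone or a fixed anchor-drug dose plus five library-drug doses (not always all listed) in √10 steps, and values are duplicate-plate medians.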

Linsitinib + Luminespib = compound: C[C@]1(O)C[C@@H](c2nc(-c3ccc4ccc(-c5ccccc5)nc4c3)c3c(N)nccn32)C1 [Linsitinib] + CCNC(=O)c1noc(-c2cc(C(C)C)c(O)cc2O)c1-c1ccc(CN2CCOCC2)cc1 [Luminespib] (partner 0.01 µM)
In short: as §1

Linsitinib + Alpelisib = compound: C[C@]1(O)C[C@@H](c2nc(-c3ccc4ccc(-c5ccccc5)nc4c3)c3c(N)nccn32)C1 [Linsitinib] + Cc1nc(NC(=O)N2CCC[C@H]2C(N)=O)sc1-c1ccnc(C(C)(C)C(F)(F)F)c1 [Alpelisib] (partner 2 µM)
In short: as §1

Ispinesib + Pemetrexed = compound: Cc1ccc(C(=O)N(CCCN)[C@@H](c2nc3cc(Cl)ccc3c(=O)n2Cc2ccccc2)C(C)C)cc1 [Ispinesib] + Nc1nc2[nH]cc(CCc3ccc(C(=O)N[C@@H](CCC(=O)O)C(=O)O)cc3)c2c(=O)[nH]1 [Pemetrexed] (partner 0.2 µM)
In short: as §1

Cell Line | relative viability (Linsitinib + Bortezomib; first compound 0.01 µM) | relative viability (Linsitinib + Bortezomib; first compound 0.03162 µM) | relative viability (Linsitinib + Bortezomib; first compound 0.1 µM) | relative viability (Linsitinib + Bortezomib; first compound 0.3162 µM) | relative viability (Linsitinib + Bortezomib; first compound 1 µM) | relative viability (Linsitinib + Luminespib; first compound 0.01 µM) | relative viability (Linsitinib + Luminespib; first compound 0.03162 µM) | relative viability (Linsitinib + Luminespib; first compound 0.1 µM) | relative viability (Linsitinib + Luminespib; first compound 0.3162 µM) | relative viability (Linsitinib + Luminespib; first compound 1 µM) | relative viability (Linsitinib + Alpelisib; first compound 0.01 µM) | relative viability (Linsitinib + Alpelisib; first compound 0.03162 µM) | relative viability (Linsitinib + Alpelisib; first compound 0.1 µM) | relative viability (Linsitinib + Alpelisib; first compound 0.3162 µM) | relative viability (Linsitinib + Alpelisib; first compound 1 µM) | relative viability (Ispinesib + Pemetrexed; first compound 0.001 µM) | relative viability (Ispinesib + Pemetrexed; first compound 0.003162 µM) | relative viability (Ispinesib + Pemetrexed; first compound 0.01 µM) | relative viability (Ispinesib + Pemetrexed; first compound 0.03162 µM) | relative viability (Ispinesib + Pemetrexed; first compound 0.1 µM)
NCI-H661 | 0.893 | 0.801 | 0.761 | 0.986 | 0.749 | 0.924 | 1.05 | 0.948 | 0.945 | 1.01 | 0.593 | 0.539 | 0.46 | 0.667 | 0.449 | 0.933 | 0.969 | 0.92 | 0.596 | 0.212
CAL-12T | 0.873 | 0.882 | 0.996 | 0.833 | 0.817 | 0.469 | 0.303 | 0.515 | 0.303 | 0.355 | 1.18 | 1.18 | 1.24 | 0.99 | 1.07 | 1.31 | 1.24 | 1.41 | 1.12 | 0.235
HARA | 1.11 | 1.08 | 1.21 | 0.666 | 1.15 | 0.715 | 0.828 | 0.945 | – | 0.173 | 0.802 | 0.768 | 0.732 | 0.409 | 0.716 | 0.278 | 0.203 | 0.209 | 0.187 | 0.171
NCI-H596 | 1.12 | 0.996 | 0.974 | 0.872 | 1.06 | 1.16 | 0.991 | 1.2 | 0.862 | 0.867 | 0.508 | 0.532 | 0.406 | 0.418 | 0.443 | 0.502 | 0.51 | 0.578 | 0.52 | 0.304
LU99A | 1.15 | 1.04 | 1.19 | 0.34 | 0.693 | 0.272 | 0.25 | 0.231 | 0.241 | 0.216 | 0.517 | 0.547 | 0.505 | 0.417 | 0.332 | 0.188 | 0.21 | 0.163 | 0.163 | 0.141
LC-2-ad | 1 | 1.1 | 1.02 | 0.664 | 0.636 | 1 | 1.07 | 0.971 | 0.873 | 0.877 | 0.84 | 0.73 | 0.822 | 0.633 | 0.733 | 0.288 | 0.259 | 0.262 | 0.23 | 0.149
NCI-H1650 | 0.208 | 0.202 | 0.184 | 0.182 | 0.223 | 0.196 | 0.167 | 0.235 | 0.202 | 0.172 | – | – | – | – | – | 0.381 | 0.368 | 0.372 | 0.321 | 0.161
NCI-H1915 | 0.948 | 0.979 | 0.961 | 0.918 | 0.671 | 0.796 | 0.61 | 0.835 | 0.707 | 0.797 | 1.08 | 1.15 | 1.14 | 0.913 | 0.878 | 0.518 | 0.528 | 0.516 | 0.294 | 0.113
ABC-1 | 0.325 | 0.291 | 0.276 | 0.284 | 0.252 | 0.544 | 0.392 | 0.604 | 0.519 | 0.312 | 0.925 | 0.726 | 0.912 | 0.76 | 0.719 | – | – | – | – | –
HCC-44 | 0.841 | 0.775 | 0.874 | 0.497 | 0.529 | 1.12 | 1.01 | 0.818 | 0.68 | 0.912 | 0.751 | 0.677 | 0.691 | 0.499 | 0.606 | 0.682 | 0.663 | 0.657 | 0.496 | 0.391
HCC-78 | 0.511 | 0.645 | 0.507 | 0.525 | 0.395 | – | – | – | – | – | 0.413 | 0.439 | 0.26 | 0.312 | 0.261 | 0.916 | 0.931 | 0.937 | 0.932 | 0.617
LXF-289 | 0.95 | 0.96 | 0.994 | 0.743 | 0.977 | 0.759 | 0.669 | 0.729 | – | 0.544 | 0.992 | 0.988 | 1.1 | 0.841 | 1.02 | 0.92 | 0.937 | 0.973 | 0.769 | 0.137
201T | 1.1 | 1.12 | 1.08 | 1.08 | 1.03 | 1.05 | 1.13 | 1.02 | 1.18 | 1.1 | 1.01 | 1.04 | 1.1 | 1.06 | 1.04 | 0.308 | 0.334 | 0.328 | 0.32 | 0.264
NCI-H1734 | 0.851 | 0.962 | 1.01 | 0.665 | 0.643 | 0.204 | 0.206 | 0.198 | 0.154 | 0.178 | 0.688 | 0.744 | 0.65 | 0.692 | 0.612 | 0.414 | 0.415 | 0.395 | 0.336 | 0.248
NCI-H1623 | – | – | – | – | – | 0.43 | 0.483 | 0.5 | – | 0.307 | – | – | – | – | – | – | – | – | – | –
NCI-H2126 | 1.13 | 1.14 | 1.13 | 0.687 | 1.06 | 0.883 | 0.841 | 0.912 | 0.838 | 0.522 | 0.726 | 0.801 | 0.743 | 0.682 | 0.717 | 0.672 | 0.669 | 0.768 | 0.647 | 0.303
LOU-NH91 | 0.436 | 0.504 | 0.581 | 0.429 | 0.478 | 0.357 | 0.355 | 0.299 | 0.244 | 0.298 | 0.743 | 0.656 | 0.7 | 0.76 | 0.602 | 0.387 | 0.428 | 0.384 | 0.374 | 0.323

— the supplement of paper PMC10307832
